This test concerns 422866-222-R5-J1-PDC spheroids with HUVEC/MSC, viability. The experiment in a line: Anticancer human tumor 422866-222-R5-J1-PDC patient-derived pancreatic adenocarcinoma cell line growth inhibition [GQUAD]. To be noted: for viability, T/C: stronger effect = lower value; for IC50: curve of compound. From the text: DNA G-quadruplex Stabilizer Agents in Combinations in Complex Spheroids
A high-throughput screen of multi-cell type tumor spheroids was designed to identify active combinations of DNA G-quadruplex stabilizer agents and targeted small molecules. Complex spheroids include a stromal component modeled by human endothelial cells (HUVEC) and fibroblasts modeled by human mesenchymal stem cells (MSCs). The concentration ranges selected for each drug and investigational agent were based upon clinically achievable concentrations if the clinical Cmax of the agent was known.
Compounds. The drugs and investigational agents: pidnarulex (CX-5461; NSC782164), APTO-253 (NSC789042), BRACO-19 (NSC847499), peposertib (NSC802822), ceralasertib (NSC780249), elimusertib (NSC800525), camonsertib (NSC841442), AZD-1390 (NSC803789), olaparib (NSC753686), talazoparib (NSC767125), ART-558 (NSC835418), sotorasib (NSC818433), MRTX-1133 (NSC836407), SN-38 (NSC673596), topotecan (NSC609699), etoposide (NSC141540), doxorubicin (NSC123127), gemcitabine (NSC613327), 5-fluorouracil (NSC19893), paclitaxel (NSC125973), vemurafenib (NSC761431), panobinostat (NSC761190), R-306465 (JNJ-16241199; NSC773264), adavosertib (NSC754352), TP-3654 (NSC805149), carboplatin (NSC241240), KSQ-4279 (NSC840948), and staurosporine (NSC755774) were obtained from the National Cancer Institute (NCI) Developmental Therapeutics Program Chemical Repository (34). The FDA-approved anticancer drug set is available from the NCI Developmental Therapeutics Program. […] The stock solutions were prepared in dimethyl sulfoxide (DMSO, Sigma-Aldrich, St. Louis, MO, cat. D2650) at 800-fold the tested concentration and stored at -70 degrees C prior to their use. All drugs and investigational agents were tested over a range starting from a high concentration at or near the clinical Cmax and decreasing in half-log increments. If the clinical Cmax for an agent had not been determined, the highest concentration tested was 10 microM.
2.3 Cell Culture. All cells were maintained in an incubator at 37 degrees C and 5% CO2 with 95% humidity. The PDC lines were cultured according to standard operating procedures established by the NCI PDMR. All PDCs were thawed and cultured in Matrigel-coated flasks prepared with a working solution of 1X Ham's F-12 nutrient mix, without supplementation (Invitrogen, cat. 11765054), 100 U/mL penicillin-streptomycin (Invitrogen, cat. 15140122), and 2.5% Matrigel (Corning Inc., cat. 354248) for the first three passages. The 857933-349-R-J2-PDC line was cultured in 6C/Colon 1B media, which includes advanced DMEM/F-12 (Thermo Fisher Scientific, cat. 12634028), 10 mM HEPES (Thermo Fisher Scientific, cat. 15630080), 1X GlutaMAX supplement (Thermo Fisher Scientific, cat. 35050061), 0.1 mg/mL primocin (InvivoGen, cat. ant-pm-2), 10% defined fetal bovine serum, heat inactivated (HyClone Laboratories Inc., cat. SH30070.03HI), 50% L-WRN conditioned media (ATCC, cat. CRL-3276), 1.25 mM N-Acetyl-L-cysteine (Sigma-Aldrich, cat. A9165), 10 mM nicotinamide (Sigma-Aldrich, cat. N0636), 1X B-27 supplement (Thermo Fisher Scientific, cat. 17504044), 1X N-2 supplement (Thermo Fisher Scientific, cat. 17502048), 10 microM Y-27632 dihydrochloride (Tocris Bioscience, cat. 1254), and 50 ng/mL human EGF recombinant protein (Thermo Fisher Scientific, cat. PHG0311). The 485176-168-R4-J1-PDC line was cultured in Panc media, which includes all 6C/Colon 1B media components plus 100 ng/mL human FGF-10 (Thermo Fisher Scientific, cat. 100-26), 500 nM SB-431542 (Selleckchem, cat. S1067), and gastrin (Tocris, cat. 3006).
[…]

Drawing on PubChem BioAssay AID2060511 (Molecular Pharmacology Branch, DTP, NCI, 2025), this text covers viability, T/C and IC50 for eleven molecules.

Several values for one entry are separate records, joined by “and”; a condition that tells them apart may be missing. Equal entries are not always repeated.
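Note: spheroids exposed to compounds for seven days before reading.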
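Throughout, for viability, T/C: percent viability relative to DMSO vehicle control taken as 100%.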

Turning to `C#Cc1c(F)ccc2cc(O)cc(-c3ncc4c(N5CC6CCC(C5)N6)nc(OCC56CCCN5CC(F)C6)nc4c3F)c12` (centres undefined), the IC50 is 1.77 µM and 2.7 µM and 1.53 µM. The viability, T/C (compound 0.0316 µM) is 98.8% and 99.8% and 86.7%. In addition, the viability, T/C (compound 0.1 µM) was 95.5% and 91.4% and 77.4%. Besides, the viability, T/C (compound 0.316 µM) was 94.1% and 82.6% and 77.7%. For the setting “compound 1 µM”, the viability, T/C is 60.1% and 79% and 57.5%. The viability, T/C (compound 3.16 µM) was 41.3% and 43.9% and 36.5%. For the same molecule, the viability, T/C (compound 10 µM) is 29.2% and 39.6% and 26.7%.
Turning to `C=CC(=O)N1CCN(c2nc(=O)n(-c3c(C)ccnc3C(C)C)c3nc(-c4c(O)cccc4F)c(F)cc23)C(C)C1` (centres undefined), the IC50 was below 0.0316 µM. Also, for the setting “compound 0.0316 µM”, the viability, T/C is 36.5% and 39.1% and 37%. Further, the viability, T/C (compound 0.1 µM) was 32.9% and 29.9% and 28.5%. Under “compound 0.316 µM”, the viability, T/C is 26.3% and 28.8% and 27.6%. Besides, the viability, T/C (compound 1 µM) is 27.3% and 26.2% and 23%. In addition, the viability, T/C (compound 3.16 µM) was 28.3% and 28.8% and 27.6%. Besides, the viability, T/C (compound 10 µM) is 29.3% and 30.3% and 27.3%.
Consider `CC(=O)O[C@H]1C(=O)[C@@]2(C)[C@H]([C@H](OC(=O)c3ccccc3)[C@]3(O)C[C@H](OC(=O)[C@H](O)[C@@H](NC(=O)c4ccccc4)c4ccccc4)C(C)=C1C3(C)C)[C@]1(OC(C)=O)CO[C@@H]1C[C@@H]2O`, for which the concentration for half-maximal inhibition (IC50) is 1.46 µM and > 10 µM. Moreover, the viability, T/C (compound 0.0316 µM) is 96% and 75.6% and 77.1%. Moreover, the viability, T/C (compound 0.1 µM) was 89.9% and 64.8% and 64.4%. In addition, the viability, T/C (compound 0.316 µM) was 82.1% and 66.5% and 76.9%. For the same molecule, the viability, T/C (compound 1 µM) was 47.7% and 68.6% and 75.5%. For the setting “compound 3.16 µM”, the viability, T/C is 39.7% and 75% and 67.1%.
With `CC(C)(O)C1CCC(Nc2ccc3ncc(-c4cccc(C(F)(F)F)c4)n3n2)CC1` (centres undefined), the IC50 was 1 µM and 1.95 µM and 2.84 µM. The viability, T/C (compound 0.0316 µM) is 94.3% and 83.6% and 92%. Further, where the note is “compound 0.1 µM”, the viability, T/C was 82.7% and 87.6% and 89.7%. Further, the viability, T/C (compound 0.316 µM) was 73.7% and 75.8% and 103%. The viability, T/C (compound 1 µM) is 47.5% and 75.1% and 71%. The viability, T/C (compound 3.16 µM) was 35% and 31.5% and 45%. The viability, T/C (compound 10 µM) was 24.6% and 32.1% and 50.8%.
As for `CC(C)n1c(=O)n(C)c2cnc3cc(F)c(-c4ccc(OCCCN5CCCCC5)nc4)cc3c21`, the IC50 was above 10 µM. The viability, T/C (compound 0.0316 µM) is 99.2% and 87.6% and 100%. Also, the viability, T/C (compound 0.1 µM) was 80.5% and 101% and 90.1%. Moreover, the viability, T/C (compound 0.316 µM) is 110% and 104% and 113%. Moreover, the viability, T/C (compound 1 µM) was 97.4% and 95.7% and 97.5%. The viability, T/C (compound 3.16 µM) was 85.5% and 89.8% and 90.1%. For the same molecule, under “compound 10 µM”, the viability, T/C was 58.6% and 62.1% and 64.2%.
For `CC1COCCN1c1cc(-c2ccnn2C)c2ccnc(-c3ccn[nH]3)c2n1` (centres undefined), the viability, T/C is, setting by setting: (compound 0.0316 µM) 80.3% and 71.6% and 81.9%; (compound 0.1 µM) 63.1% and 61.5% and 48.7%; (compound 0.316 µM) 47.8% and 50% and 45.2%; (compound 1 µM) 45% and 40.2% and 45.6%; (compound 3.16 µM) 63.9% and 81.7% and 45%; (compound 10 µM) 81.2% and 80.8% and 88.8%.
Consider `CC1COCCN1c1cc(C2(O)CC3CCC(C2)O3)c2cnn(-c3ccn[nH]3)c2n1` (centres undefined), for which the 50% inhibitory concentration (IC50) is above 10 µM. In addition, where the note is “compound 0.0316 µM”, the viability, T/C is 79.2% and 81.7% and 79.9%. For the same molecule, the viability, T/C (compound 0.1 µM) was 44.1% and 40% and 47.8%. Besides, under “compound 0.316 µM”, the viability, T/C is 42.2% and 37.5% and 56.3%. In addition, the viability, T/C (compound 1 µM) is 57.8% and 66.2% and 79.9%. Further, under “compound 3.16 µM”, the viability, T/C is 89.3% and 91.2% and 80.4%. Where the note is “compound 10 µM”, the viability, T/C was 90.9% and 96% and 90.3%.
For `CC1COCCN1c1cc(C2(S(C)(=N)=O)CC2)nc(-c2ccnc3[nH]ccc23)n1` (centres undefined), the IC50 is 2.21 µM and 2.77 µM and 3.24 µM. Further, the viability, T/C (compound 0.0316 µM) is 81.8% and 101% and 93.1%. Also, for the setting “compound 0.1 µM”, the viability, T/C is 90.2% and 107% and 98.3%. The viability, T/C (compound 0.316 µM) was 105% and 97.1% and 114%. For the same molecule, the viability, T/C (compound 1 µM) was 70.9% and 82.1% and 91.5%. Moreover, for the setting “compound 3.16 µM”, the viability, T/C was 43% and 44.8% and 50.8%. For the setting “compound 10 µM”, the viability, T/C is 38% and 39.5% and 36.4%.
Take `CCCS(=O)(=O)Nc1ccc(F)c(C(=O)c2c[nH]c3ncc(-c4ccc(Cl)cc4)cc23)c1F`: the viability, T/C by setting is: (compound 0.0316 µM) 96.7% and 101% and 93.4%; (compound 0.1 µM) 99.6% and 95.4% (2×); (compound 0.316 µM) 60% and 140% and 121%; (compound 1 µM) 45.6% and 153% and 136%; (compound 3.16 µM) 32.6% and 184% and 167%; (compound 10 µM) 32.6% and 108% and 52.1%.
As to `CC[C@@]1(O)C(=O)OCc2c1cc1n(c2=O)Cc2cc3c(CN(C)C)c(O)ccc3nc2-1`, the IC50 was 0.0808 µM and 0.258 µM and 0.0677 µM. Besides, the viability, T/C (compound 0.000999 µM) is 83.5% and 106% and 100%. Besides, the viability, T/C (compound 0.00316 µM) was 90.9% and 90.2% and 96.4%. Further, where the note is “compound 0.00999 µM”, the viability, T/C is 95.7% and 88.8% and 103%. Also, the viability, T/C (compound 0.0316 µM) is 75.4% and 74.9% and 70.9%. For the same molecule, the viability, T/C (compound 0.0999 µM) was 45.5% and 52.7% and 40.6%. In addition, under “compound 0.316 µM”, the viability, T/C was 42.4% and 50.6% and 38.1%.
Regarding `CCc1c2c(nc3ccc(O)cc13)-c1cc3c(c(=O)n1C2)COC(=O)[C@]3(O)CC`, the IC50 was < 0.000999 µM and 0.00117 µM and 0.00164 µM. The viability, T/C (compound 0.000999 µM) was 53.2% and 55.8% and 56.2%. Moreover, where the note is “compound 0.00316 µM”, the viability, T/C was 38.6% and 47.6% and 39.6%. For the setting “compound 0.00999 µM”, the viability, T/C was 42.5% and 37.8% and 43.5%. In addition, the viability, T/C (compound 0.0316 µM) is 36.8% and 46.3% and 25.2%. In addition, the viability, T/C (compound 0.0999 µM) is 33.3% and 47.4% and 35.1%. For the same molecule, where the note is “compound 0.316 µM”, the viability, T/C is 34% and 43.8% and 29.1%.

For orientation: viability, T/C means the ratio of treated to control. What is called IC50 is the midpoint of a concentration-inhibition curve.
